This passage reports mortality results from patent US8680269B2, “Pesticidal compositions” (Dow AgroSciences, LLC., priority 2009, dated 2014).

SMILES strings stand for the structures.

The test system of assay [1] is corn earworm (CEW; Helicoverpa zea). In words: Insecticidal test for corn earworm, 128-well diet tray assay. It is filed as in vivo. To be noted: 144 h, 50 μg/cm2 on artificial diet, second instar larvae, six days at 25° C. The procedure:
(§1) Bioassays on corn earworm (CEW; Helicoverpa zea: Lepidoptera) were conducted using a 128-well diet tray assay. Three to five second instar CEW larvae were placed in each well (3 mL) of the diet tray that had been previously filled with 1 mL of artificial diet to which 50 μg/cm^2 of the test compound (dissolved in 50 μL of 90:10 acetone-water mixture) had been applied (to each of eight wells) and then allowed to dry. Trays were covered with a clear self-adhesive cover, and held at 25° C., 14:10 light-dark for six days. Percent mortality was recorded for the larvae in each well; activity in the eight wells was then averaged.

In assay [2] the test system is beet armyworm (BAW; Spodoptera exigua). The experiment in a line: Insecticidal test for beet armyworm, 128-well diet tray assay. The conditions noted are these: 144 h, 50 μg/cm2 on artificial diet, second instar larvae, six days at 25° C. Format: in vivo. The method, then:
as §1, with “beet armyworm (BAW; Spodoptera exigua:” for “corn earworm (CEW; Helicoverpa zea:”, “BAW” for “CEW”

Regarding `COc1cccc(NC(=S)N/N=C/c2ccc(-c3ncn(-c4ccc(OC(F)(F)F)cc4)n3)cc2)c1C` [Compound 90], the mortality at 50 µg/cm2 in assay [1] and in assay [2] was 50 to 100% each time.
For the compound `CC(NC(=S)N/N=C/c1ccc(-c2ncn(-c3ccc(OC(F)(F)F)cc3)n2)cc1)c1ccccc1` (centres unmarked) [Compound 152], the mortality at 50 µg/cm2 in assay [1] and in assay [2] was 50 to 100% in each case.
For `CC(C)(C)c1ccccc1NC(=S)N/N=C/c1ccc(-c2ncn(-c3ccc(OC(F)(F)F)cc3)n2)cc1` [Compound 83], the mortality at 50 µg/cm2 in assay [1] and in assay [2] was below 50% in each case.
`Fc1cccc(Br)c1NC(=S)N/N=C/c1ccc(-c2ncn(-c3ccc(OC(F)(F)F)cc3)n2)cc1` [Compound 105]: the mortality at 50 µg/cm2 in assay [1] and in assay [2] was 50 to 100% each time.
Take `Cc1cc(C)c(NC(=S)N/N=C/c2ccc(-c3ncn(-c4ccc(OC(F)(F)F)cc4)n3)cc2)c(C)c1` [Compound 93]: the mortality at 50 µg/cm2 in assay [1] and in assay [2] was 50 to 100% throughout.
`Cc1cc(C)c(NC(=S)N/N=C/c2ccc(-c3ncn(-c4ccc(OC(F)(F)F)cc4)n3)cc2)c(Cl)c1` [Compound 104]: the mortality at 50 µg/cm2 in assay [1] and in assay [2] was 50 to 100% each time.
Consider `Cc1ccc(NC(=S)N/N=C/c2ccc(-c3ncn(-c4ccc(OC(F)(F)F)cc4)n3)cc2)c(C(C)C)c1` [Compound 96], for which the mortality at 50 µg/cm2 in assay [1] and in assay [2] was 50 to 100% throughout.
`COc1ccc([C@@H](C)NC(=S)N/N=C/c2ccc(-c3ncn(-c4ccc(OC(F)(F)F)cc4)n3)cc2)cc1` [Compound 142]: the mortality at 50 µg/cm2 in assay [1] and in assay [2] was 50 to 100% throughout.
With `CC(C)c1cccc(C(C)C)c1NC(=S)N/N=C/c1ccc(-c2ncn(-c3ccc(OC(F)(F)F)cc3)n2)cc1` [Compound 107], the mortality at 50 µg/cm2 in assay [1] and in assay [2] was 50 to 100% each time.
As for `Cc1cccc(C)c1NC(=S)N/N=C/c1ccc(C2=NN(c3ccc(OC(F)(F)F)cc3)CC2)cc1` [Compound 140], the mortality at 50 µg/cm2 in assay [1] and in assay [2] was 50 to 100% throughout.
Take `Cc1cccc(C)c1NC(=S)N/N=C/c1ccc(-c2ccn(-c3ccc(OC(F)(F)F)cc3)c2)cc1` [Compound 134]: the mortality at 50 µg/cm2 in assay [1] and in assay [2] was 50 to 100% each time.
Turning to `Cc1cc(C)c(NC(=O)N/N=C/c2ccc(-c3ncn(-c4ccc(OC(F)(F)F)cc4)n3)cc2)c(C)c1` [Compound 118], the mortality at 50 µg/cm2 in assay [1] and in assay [2] was 50 to 100% each time.
As to `FC(F)(F)Oc1ccc(-n2cnc(-c3ccc(/C=N/NC(=S)Nc4c(Br)cccc4Br)cc3)n2)cc1` [Compound 48], the mortality at 50 µg/cm2 in assay [1] and in assay [2] was 50 to 100% throughout.
As for `C/C(=N\NC(=S)Nc1c(C)cccc1C)c1ccc(-c2cnn(-c3ccc(OC(F)(F)F)cc3)c2)cc1` [Compound 139], the mortality at 50 µg/cm2 in assay [1] and in assay [2] was 50 to 100% each time.
Take `COc1cc(OC)c(NC(=S)N/N=C/c2ccc(-c3ncn(-c4ccc(OC(F)(F)F)cc4)n3)cc2)c(OC)c1` [Compound 88]: the mortality at 50 µg/cm2 in assay [1] and in assay [2] was 50 to 100% in each case.
For `COc1ccc(C(C)NC(=S)N/N=C/c2ccc(-c3ncn(-c4ccc(OC(F)(F)F)cc4)n3)cc2)cc1C` (centres unmarked) [Compound 149], the mortality at 50 µg/cm2 in assay [1] and in assay [2] was 50 to 100% each time.
For the compound `COc1cc(C)cc(C)c1NC(=S)N/N=C/c1ccc(-c2ncn(-c3ccc(OC(F)(F)F)cc3)n2)cc1` [Compound 103], the mortality at 50 µg/cm2 in assay [1] and in assay [2] was 50 to 100% in each case.
With `COc1cccc(NC(=S)N/N=C/c2ccc(-c3ncn(-c4ccc(OC(F)(F)F)cc4)n3)cc2)c1` [Compound 94], the mortality at 50 µg/cm2 in assay [1] and in assay [2] was 50 to 100% throughout.
For `COc1ccc(NC(=S)N/N=C/c2ccc(-c3ncn(-c4ccc(OC(F)(F)F)cc4)n3)cc2)c(C(C)C)c1` [Compound 121], the mortality at 50 µg/cm2 in assay [1] and in assay [2] was 50 to 100% throughout.
For `Cc1cc(C)c(NC(=S)N/N=C/c2ccc(-c3ncn(-c4ccc(OC(F)(F)C(F)(F)F)cc4)n3)cc2)c(C)c1` [Compound 123], the mortality at 50 µg/cm2 in assay [1] and in assay [2] was 50 to 100% in each case.
`CCc1cccc(CC)c1NC(=S)N/N=C(\C)c1ccc(-c2ncn(-c3ccc(OC(F)(F)F)cc3)n2)cc1` [Compound 110]: the mortality at 50 µg/cm2 in assay [1] and in assay [2] was 50 to 100% throughout.
For the compound `Cc1ccc(NC(=S)N/N=C/c2ccc(-c3ncn(-c4ccc(OC(F)(F)F)cc4)n3)cc2)c(C)c1` [Compound 95], the mortality at 50 µg/cm2 in assay [1] and in assay [2] was 50 to 100% throughout.
With `COc1cc(C)ccc1NC(=S)N/N=C/c1ccc(-c2ncn(-c3ccc(OC(F)(F)F)cc3)n2)cc1` [Compound 117], the mortality at 50 µg/cm2 in assay [1] and in assay [2] was 50 to 100% in each case.
Take `COc1ccc(C(C)NC(=S)N/N=C/c2ccc(-c3ncn(-c4ccc(OC(F)(F)F)cc4)n3)cc2)cc1OC` (centres unmarked) [Compound 151]: the mortality at 50 µg/cm2 in assay [1] and in assay [2] was 50 to 100% in each case.
Regarding `Cc1cc(C)c(NC(=S)N/N=C/c2ccc(-c3ncn(-c4ccc(OC(F)(F)F)cc4)n3)cc2)c(C)n1` [Compound 106], the mortality at 50 µg/cm2 in assay [1] and in assay [2] was 50 to 100% each time.
Consider `Cc1ccnc(C)c1NC(=S)N/N=C/c1ccc(-c2ncn(-c3ccc(OC(F)(F)F)cc3)n2)cc1` [Compound 102], for which the mortality at 50 µg/cm2 in assay [1] and in assay [2] was 50 to 100% in each case.
With `COc1ccc(NC(=S)N/N=C/c2ccc(-c3ncn(-c4ccc(OC(F)(F)C(F)(F)F)cc4)n3)cc2)c(C)c1` [Compound 122], the mortality at 50 µg/cm2 in assay [1] and in assay [2] was 50 to 100% each time.
For the compound `COc1cc(Cl)c(NC(=S)N/N=C/c2ccc(-c3ncn(-c4ccc(OC(F)(F)F)cc4)n3)cc2)c(Cl)c1` [Compound 115], the mortality at 50 µg/cm2 in assay [1] and in assay [2] was 50 to 100% in each case.
In the case of `COc1cccc(C(C)NC(=S)N/N=C/c2ccc(-c3ncn(-c4ccc(OC(F)(F)F)cc4)n3)cc2)c1` (centres unmarked) [Compound 153], the mortality at 50 µg/cm2 in assay [1] and in assay [2] was 50 to 100% in each case.
As for `CC(NC(=S)N/N=C/c1ccc(-c2ncn(-c3ccc(OC(F)(F)F)cc3)n2)cc1)c1cccnc1` (centres unmarked) [Compound 158], the mortality at 50 µg/cm2 in assay [1] and in assay [2] was 50 to 100% throughout.
Consider `CCCN(/N=C/c1ccc(-c2ncn(-c3ccc(OC(F)(F)F)cc3)n2)cc1)C(=S)Nc1ccc(OC)cc1C` [Compound 87], for which the mortality at 50 µg/cm2 in assay [1] and in assay [2] was below 50% throughout.
Regarding `Cc1ccc(NC(=S)N/N=C/c2ccc(-c3ncn(-c4ccc(OC(F)(F)F)cc4)n3)cc2)cc1` [Compound 92], the mortality at 50 µg/cm2 in assay [1] and in assay [2] was 50 to 100% in each case.
Turning to `COc1cc(C)c(NC(=S)N/N=C/c2ccc(-c3ncn(-c4ccc(OC(F)(F)F)cc4)n3)cc2)c(C)c1` [Compound 116], the mortality at 50 µg/cm2 in assay [1] and in assay [2] was 50 to 100% each time.
For `COCc1ccc(C(C)NC(=S)N/N=C/c2ccc(-c3ncn(-c4ccc(OC(F)(F)F)cc4)n3)cc2)cc1` (centres unmarked) [Compound 157], the mortality at 50 µg/cm2 in assay [1] and in assay [2] was 50 to 100% throughout.
As for `CCc1cc(OC)ccc1NC(=S)N/N=C/c1ccc(-c2ncn(-c3ccc(OC(F)(F)F)cc3)n2)cc1` [Compound 111], the mortality at 50 µg/cm2 in assay [1] and in assay [2] was 50 to 100% throughout.
`Cc1ncccc1NC(=S)N/N=C/c1ccc(-c2ncn(-c3ccc(OC(F)(F)F)cc3)n2)cc1` [Compound 99]: the mortality at 50 µg/cm2 in assay [1] and in assay [2] was 50 to 100% throughout.
As to `FC(F)(F)Oc1ccc(-n2ccc(-c3ccc(/C=N/NC(=S)Nc4c(Cl)cccc4Cl)cc3)c2)cc1` [Compound 135], the mortality at 50 µg/cm2 in assay [1] and in assay [2] was 50 to 100% in each case.
As for `FC(F)(F)Oc1ccc(-n2cnc(-c3ccc(/C=N/NC(=S)NC4CCc5ccccc54)cc3)n2)cc1` (centres unmarked) [Compound 145], the mortality at 50 µg/cm2 in assay [1] and in assay [2] was 50 to 100% each time.
`CCN(/N=C/c1ccc(-c2ncn(-c3ccc(OC(F)(F)F)cc3)n2)cc1)C(=S)Nc1ccc(OC)cc1C` [Compound 86]: the mortality at 50 µg/cm2 in assay [1] and in assay [2] was 50 to 100% each time.
For the compound `C=C(C)c1ccccc1NC(=S)N/N=C/c1ccc(-c2ncn(-c3ccc(OC(F)(F)F)cc3)n2)cc1` [Compound 91], the mortality at 50 µg/cm2 in assay [1] and in assay [2] was 50 to 100% throughout.
As for `Cc1ccccc1C(C)NC(=S)N/N=C/c1ccc(-c2ncn(-c3ccc(OC(F)(F)F)cc3)n2)cc1` (centres unmarked) [Compound 147], the mortality at 50 µg/cm2 in assay [1] and in assay [2] was 50 to 100% throughout.
Take `COc1ccc(NC(=S)N(C)/N=C/c2ccc(-c3ncn(-c4ccc(OC(F)(F)F)cc4)n3)cc2)c(C)c1` [Compound 85]: the mortality at 50 µg/cm2 in assay [1] and in assay [2] was 50 to 100% each time.
In the case of `Cc1cccc(C)c1NC(=S)N/N=C/c1ccc(-c2cnn(-c3ccc(OC(F)(F)F)cc3)c2)cc1` [Compound 138], the mortality at 50 µg/cm2 in assay [1] and in assay [2] was 50 to 100% in each case.
